# Assay results reported in patent publication US7326686B2, “Compounds and methods for regulating cell adhesion” (Adherex Inc., priority 1997, dated 2008).
# Where no end group is shown, it is not given here.
# How the values were obtained:
# [1] = test system: Schwann cell migration on astrocytes; assay: Micro-inverted-coverslip migration assay on astrocyte monolayers; format: cell-based, rat
# Procedure: Schwann cell migration may generally be evaluated using a micro-inverted-coverslip assay. In this assay, a dense Schwann cell culture is established on coverslip fragments and Schwann cell migration away from the fragment edge is measured. Briefly, Schwann cells fluorescently labeled with Di-I may be plated on polylysine- and laminin-coated fragments of a glass coverslip and allowed to bind to the surface for 16-18 hours. Cells may then be washed (e.g., in Hanks medium) to remove non-attached cells, and then inverted, with cells facing downward onto an astrocyte-coated surface. Cultures are then incubated further for 2 days in the presence or absence of modulating agent (e.g., LRAHAVDING (SEQ ID NO: 21) at a concentration of 1 mg/mL) and fixed. The maximum migration distance from the edge of the coverslip fragment may then be measured. At a level of 1 mg/mL, modulating agent results in an increase or decrease in the maximum migration distance of at least 50%. This assay evaluates the effect of a modulating agent on N-cadherin mediated cell adhesion.
# In order to assess the rates of Schwann cell migration on different surfaces, the micro-inverted-coverslip migration assay was employed. This is a variation of the technique first described by Fok-Seang et al., Dev. Biol. 171:1-15, 1995. Schwann cells fluorescently labeled with Di-I (25 μg/ml) were evenly plated onto polylysine and laminin coated fragments of glass coverslip (1×2 mm). After 16-18 hours, the pieces of glass coated with Di-I labeled Schwann cells were dipped into Hanks three times to remove any loosely attached cells and then inverted with cells facing downwards onto laminin-coated tissue culture surfaces or onto cell monolayers. These cultures were then incubated for a further two days and fixed for 20 minutes with 4% paraformaldehyde. The maximum migration distance was measured, and the number of cells in bands of 0.1 mm progressing outwards from the edge of the coverslip were counted.
# In this assay, a dense Schwann cell culture is established on coverslip fragments and their migration away from its edge measured. The assay therefore measures the ability of Schwann cells to migrate on a surface, and their ability to migrate away from a confluent Schwann cell monolayer. The migration front of the foremost cells was measured, and the number of cells against distance of migration plotted. Schwann cell-laden fragments were placed on laminin to give a baseline migration rate on a favorable defined surface, and laminin controls were done for comparison on each assay.
# [2] = test system: Schwann cell-astrocyte adhesion; assay: Schwann cell-astrocyte adhesion assay (Dil-labelled Schwann cells on astrocyte monolayer, shaking platform 30 min); format: cell-based, rat
# Procedure: The effect of a modulating agent on Schwann cell adhesion to astrocytes may generally be evaluated using a cell adhesion assay. Briefly, Schwann cells fluorescently labeled with Di-I may be plated onto an astrocytic surface (e.g., a glass coverslip coated with a monolayer of astrocytes) and incubated on a shaking platform (e.g., 25 rpm for 30 minutes) in the presence and absence of modulating agent (e.g., LRAHAVDING (SEQ ID NO: 21) at a concentration of 1 mg/mL). Cells may then be washed (e.g., in Hanks medium) to remove non-attached cells. The attached cells may then be fixed and counted (e.g., using a fluorescent microscope). In general, 1 mg/mL of a modulating agent results in an increase or decrease in cell adhesion of at least 50%. This assay evaluates the effect of a modulating agent on N-cadherin mediated cell adhesion.
# In order to test whether the migratory behavior of Schwann cells on different cell types was a function of adhesivity to the substratum, Dil-labeled Schwann cells were plated onto either astrocytic, fibroblasts, Schwann cell or laminin surfaces. 20,000 Dil-labeled Schwann cells were placed in a 15 mm diameter well in 0.5 ml of medium over a 13 mm glass coverslip coated with laminin, or a complete monolayer of astrocytes, fibroblasts or Schwann cells and then placed onto a shaking platform (25 rpm) for 30 minutes in an incubator. The coverslips were washed three times in Hanks after 30 minutes to remove any non-attached cells and the remainder were fixed for 20 minutes in 4% paraformaldehyde. The number of Dil-labeled Schwann cells that were attached to the coverslip were counted using a Leitz Diaplan fluorescent microscope under rhodamine optics.
# In order to reduce extracellular calcium, DMEM was replaced by S-MEM (Joklik's modification; Gibco) with 0.2 mM calcium chloride added or the calcium buffer EGTA (Sigma) was employed. Adhesion assays in the absence of external calcium were performed using Schwann cells and astrocytes. Either a low calcium solution (S-MEM in place of DMEM with 0.2 mM calcium chloride) or a calcium buffer (EGTA in a normal DMEM medium) was used in these assays. […] EGTA concentrations less than 1.3 mM had little effect upon Schwann cell migration whereas those above 1.8 mM caused disruption of the astrocytic monolayer (data not shown). Adhesion of Schwann cells to astrocytes in the presence of the standard DMEM based medium was taken as the control and assigned the normalized value of 1.0±0.03. Low calcium solutions reduced intercellular adhesion to 0.47±0.09 and the addition of 1.6 mM EGTA to DMEM reduced adhesion to 0.39±0.05 (FIG. 10A). […]
# [3] = peptide 1 mg/ml, adhesion in the absence of peptide = 1.0±0.05, mean±S.E.M.
compound,measurement,setting,value
O=C(O)CN(CCOCCOCCN(CC(=O)O)CC(=O)O)CC(=O)O [EGTA],extent of Schwann cell migration upon astrocyte monolayers,"[1]; EGTA 1.6 mM, control migration 0.25±0.03",0.86 mm
same,concentrations causing disruption of the astrocytic monolayer,[1]; data not shown,above 1.8 mM
same,concentrations with little effect upon Schwann cell migration,[1]; data not shown,less than 1.3 mM
same,optimal concentration for Schwann cell migration,[1]; various concentrations of EGTA tested (data not shown),1.6 mM
same,"Schwann cell-astrocyte adhesion, normalized","[2]; 1.6 mM EGTA added to DMEM, standard DMEM control = 1.0±0.03",0.39±0.05
LRAHAVDING-NH2,"Schwann cell-astrocyte adhesion, normalized",[2]; [3],0.38±0.07
LRAHGVDING-NH2,"Schwann cell-astrocyte adhesion, normalized",[2]; [3],0.78±0.10
MRAHAVDING-NH2,"Schwann cell-astrocyte adhesion, normalized",[2]; [3],0.39±0.04
